# Laboratory results as given in patent US10912814B2, “Combination formulation of three antiviral compounds” (priority 2016, dated 2021).
# Like-named read-outs stand apart in the source and are kept apart here.
# Experiments:
# [1] = Oral bioavailability of crystalline voxilaprevir forms in a dog model; details: in vivo, read-out: oral bioavailability, less than that of crystalline Form VI
# Description: (§1) As described previously, Form VIII of voxilaprevir is characterized by an X-ray powder diffractogram comprising the following peaks (±0.2°): at 7.8, 8.2, and 20.2°2θ, as determined on a diffractometer using Cu-Kα radiation.
# [2] = Solubility (aqueous, spray-drying solvents); type: physicochemical
# From the text: (§2) In some embodiments, and the Examples presented herein, the tablet formulation includes sofosbuvir having Form 6 and, optionally, a trace amount of Form 7. […] Form 6 of sofosbuvir is the thermodynamically stable form and remains physically stable when suspended in water. Form 7 of Sofosbuvir, while physically stable in water for short periods of time, can be converted to Form 6 with prolonged stirring.
# as §1
# The selection of a suitable solvent for the spray drying process was based on (1) the solubility of voxilaprevir EAS, Form II and copovidone in the solvent, (2) the chemical stability of voxilaprevir EAS, Form II in the presence of the solvent, and (3) the impact of the solvent on feed solution properties and particle properties of the resulting solid dispersion. Acetone and dichloromethane were evaluated as solvents for the feed solution because of their low boiling points and the high solubility of voxilaprevir EAS, Form II (>300 mg/mL) in these solvents.
# Hygroscopicity = type: physicochemical
# From the text: as §2
# Voxilaprevir SSD is hygroscopic, with a reversible weight gain of 11% when cycled between 0% and 90% RH at 25° C.
# [3] = Storage stability: appearance, assay/label strength (LS), total impurities/degradation products; type: physicochemical; details: for physical and chemical stability: open container, 1 month at 40° C./75% RH
# Description: In some embodiments, the film-coated tablets were packaged in 75 and 100 mL white HDPE bottles (Lots A and B, respectively, as described in Tables 11A, 11B) with 1 g silica gel desiccant canisters and a polyester fiber coil. The 75 and 100 mL HDPE bottles contained fourteen and twenty eight tablets, respectively. Each HDPE bottle was capped using a white, continuous thread, child-resistant polypropylene screw cap with an […], aluminum-faced line. The packaged tablets (14 and 28 counts) were evaluated for stability at 40° C./75% RH and 25° C./60% RH. Additionally, the 14-count bottles (without cap) were evaluated for stability under open conditions at 40° C./75% RH.
# For each of the impact studies, the sofosbuvir/velpatasvir SSD/voxilaprevir SSD tablets were packaged in a designated commercial packaging configuration (28-count, 100 mL HPDE bottle, coil, 1 g desiccant), and stored for 12 weeks at 25° C./60% RH and 40° C./75% RH. Tablets were also packaged in open containers (28-count, 100 mL HPDE bottle without cap) and stored for 4 weeks at 40° C./75% RH and for 1 week at 50° C./92% RH.
# The sofosbuvir/velpatasvir SSD/voxilaprevir SSD tablets were packaged in the designated commercial packaging configuration (28-count, 100 mL HPDE bottle, coil, 1 g desiccant), and stored for 6 months at 25° C./60% RH and 40° C./75% RH.
# [4] = Photostability (light exposure, ICH Q1B); type: physicochemical
# Description: In some embodiments, and the Examples presented herein, the tablet formulation includes sofosbuvir having Form 6 and, optionally, a trace amount of Form 7.
# Tablet cores and film-coated tablets were evaluated per ICH Q1B guidelines with a total of illumination of more than 1.2 million-lux hours and a total irradiance of more than 200 W·hr/m^2.
# BCS classification = type: physicochemical
# [5] = Tablet dissolution as a function of medium pH and composition (Apparatus II, 75 rpm, 900 mL, 37° C.); type: physicochemical; details: Formulation G tablets
# [6] = Velpatasvir single and multiple oral dose pharmacokinetics; type: in vivo, human; details: for concentration at 24 h: human, plasma, oral, 5 mg, mean
# Description: Following single and multiple oral doses of velpatasvir, maximum plasma concentrations occurred between 1.50 and 3.25 hours (median tmax).
# [7] = Tablet dissolution in 50 mM sodium acetate buffer pH 5.0 with 2.0% w/v Polysorbate 80 and 0.001% w/v BHT, 75 rpm, 900 mL, 37° C., USP Type II; type: physicochemical; details: for dissolution at 30 minutes: after 4 weeks open at 40° C./75% RH
compound,measurement,setting,value
CC[C@@H]1[C@@H]2CN(C(=O)[C@H](C(C)(C)C)NC(=O)O[C@@H]3C[C@H]3CCCCC(F)(F)c3nc4ccc(OC)cc4nc3O2)[C@@H]1C(=O)N[C@]1(C(=O)NS(=O)(=O)C2(C)CC2)C[C@H]1C(F)F [crystalline Form VIII],bioavailability,[1],~50%
"CC[C@@H]1[C@@H]2CN(C(=O)[C@H](C(C)(C)C)NC(=O)O[C@@H]3C[C@H]3CCCCC(F)(F)c3nc4ccc(OC)cc4nc3O2)[C@@H]1C(=O)N[C@]1(C(=O)NS(=O)(=O)C2(C)CC2)C[C@H]1C(F)F [voxilaprevir EAS, Form II]",solubility,"[2]; acetone and dichloromethane, organic solvent or mixture, read-out: solubility in acetone and dichloromethane",> 300 mg/mL
CC(C)OC(=O)[C@@H](C)N[P@](=O)(OC[C@H]1O[C@@H](n2ccc(=O)[nH]c2=O)[C@](C)(F)[C@@H]1O)Oc1ccccc1 [sofosbuvir Form 6],hygroscopicity,Hygroscopicity,non-hygroscopic
same,solubility,"[2]; water, 37° C., read-out: aqueous solubility",≥ 2 mg/mL
same,physical and chemical stability,[3],physically and chemically stable
same,photosensitivity,[4],not photosensitive
CC(C)OC(=O)[C@@H](C)N[P@](=O)(OC[C@H]1O[C@@H](n2ccc(=O)[nH]c2=O)[C@](C)(F)[C@@H]1O)Oc1ccccc1 [sofosbuvir Form 7],hygroscopicity,Hygroscopicity,non-hygroscopic
same,physical and chemical stability,[3],physically and chemically stable
same,photosensitivity,[4],not photosensitive
"COC[C@H]1C[C@@H](c2ncc(-c3ccc4c(c3)COc3cc5c(ccc6nc([C@@H]7CC[C@H](C)N7C(=O)[C@@H](NC(=O)OC)C(C)C)[nH]c65)cc3-4)[nH]2)N(C(=O)[C@H](NC(=O)OC)c2ccccc2)C1 [Velpatasvir, methyl {(2S)-1-[(2S,5S)-2-(9-{2-[(2S,4S)-1-{(2R)-2-[(methoxycarbonyl)amino]-2-phenylacetyl}-4-(methoxymethyl)pyrrolidin-2-yl]-1H-imidazol-5-yl}-1,11-dihydroisochromeno[4′,3′:6,7]naphtho[1,2-d]imidazol-2-yl)-5-methylpyrrolidin-1-yl]-3-methyl-1-oxobutan-2-yl}carbamate]","aqueous solubility, pH dependence",BCS classification,pH-dependent solubility
same,dissolution at 60 minutes in pH 4.0 and 5.0 containing 2.0% w/v polysorbate 80,[5],complete dissolution
same,"dissolution in pH 2.0, 4.5 and 6.8 buffers, FaSSIF and FeSSIF",[5],Incomplete dissolution
same,total impurities/degradation products,"[3]; packaged Formulation G tablets (Tables 11A, 11B), 40° C./75% RH and 25° C./60% RH for 6 months",0.0%
same,total impurities/degradation products,"[3]; tablet Lots A-D from sub-potent/super-potent VEL SSD and VOX SSD, all conditions",0.0%
same,total impurities/degradation products,"[3]; tablets from SSDs made with high-peroxide copovidone (544 ppm VEL SSD, 655 ppm VOX SSD)",0.0%
same,total impurities/degradation products,"[3]; tablets from VEL SSD with 6.0% residual ethanol and VOX SSD with 2.1% residual acetone, all conditions",0.0%
same,total impurities/degradation products,"[3]; tablets from VEL SSD with 7.0% and VOX SSD with 3.2% water content, all conditions",0.0%
same,dose linearity of PK,[6]; dose range of 5 to 450 mg,nonlinear PK
same,concentration at 24 h,"[6]; multiple dose 5 mg, read-out: Ctau",2.2 ng/mL
same,concentration at 24 h,"[6]; single dose 5 mg, read-out: Clast",1.4 ng/mL
same,level of degradation products,"[4]; tablets film-coated to weight gains of 2.1 to 5.4%, ICH Q1B",0.4%
same,loss after exposure to light,"[4]; uncoated tablet cores (Formulation G), ICH Q1B",up to 0.3%
same,dissolution at 30 minutes,[7]; SSD potency tablets Lot A,86%
same,dissolution at 30 minutes,[7]; SSD potency tablets Lot B,91%
same,release at 30 minutes,[7]; tablets containing neat amorphous velpatasvir free base (physical mixture with copovidone),62%
same,release at 30 minutes,[7]; tablets containing velpatasvir SSD,91%
